Reference: the supplement of paper PMC10307832

How the values were obtained:
Experiment in all cases: relative viability (nuclei count vs DMSO), 5 days (fraction); higher = more cells survive
Wnt-C59 + Lapatinib = compound: CC1=NC=CC(=C1)C2=CC=C(C=C2)CC(=O)NC3=CC=C(C=C3)C4=CN=CC=C4 [Wnt-C59] + CS(=O)(=O)CCNCc1ccc(-c2ccc3ncnc(Nc4ccc(OCc5cccc(F)c5)c(Cl)c4)c3c2)o1 [Lapatinib] (partner 2 µM)
Outline: (§1)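 Lung cancer cell lines in 1536-well plates were dosed by pin tool the day after seeding, either with one drug alone or with a fixed anchor-drug dose plus five library-drug doses (not always all listed) in √10 steps. After 5 days, cells were fixed and their nuclei stained in one step (final 0.05% Triton X-100, 1% formaldehyde, 1 ug/ml Hoechst), then counted on 4× images. Relative viability is the nuclei count in treated wells divided by that in vehicle wells. Values are medians of duplicate plates.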

Wnt-C59 + Olaparib = compound: CC1=NC=CC(=C1)C2=CC=C(C=C2)CC(=O)NC3=CC=C(C=C3)C4=CN=CC=C4 [Wnt-C59] + O=C(c1cc(Cc2n[nH]c(=O)c3ccccc23)ccc1F)N1CCN(C(=O)C2CC2)CC1 [Olaparib] (partner 8 µM)
Outline: as §1

Lapatinib + Luminespib = compound: CS(=O)(=O)CCNCc1ccc(-c2ccc3ncnc(Nc4ccc(OCc5cccc(F)c5)c(Cl)c4)c3c2)o1 [Lapatinib] + CCNC(=O)c1noc(-c2cc(C(C)C)c(O)cc2O)c1-c1ccc(CN2CCOCC2)cc1 [Luminespib] (partner 0.01 µM)
Outline: as §1

Lapatinib + Alpelisib = compound: CS(=O)(=O)CCNCc1ccc(-c2ccc3ncnc(Nc4ccc(OCc5cccc(F)c5)c(Cl)c4)c3c2)o1 [Lapatinib] + Cc1nc(NC(=O)N2CCC[C@H]2C(N)=O)sc1-c1ccnc(C(C)(C)C(F)(F)F)c1 [Alpelisib] (partner 2 µM)
Outline: as §1

Cell Line	relative viability (Wnt-C59 + Lapatinib; first compound 0.001 µM)	relative viability (Wnt-C59 + Lapatinib; first compound 0.01 µM)	relative viability (Wnt-C59 + Lapatinib; first compound 0.03162 µM)	relative viability (Wnt-C59 + Lapatinib; first compound 0.1 µM)	relative viability (Wnt-C59 + Olaparib; first compound 0.001 µM)	relative viability (Wnt-C59 + Olaparib; first compound 0.01 µM)	relative viability (Wnt-C59 + Olaparib; first compound 0.03162 µM)	relative viability (Wnt-C59 + Olaparib; first compound 0.1 µM)	relative viability (Lapatinib + Luminespib; first compound 0.02 µM)	relative viability (Lapatinib + Luminespib; first compound 0.06325 µM)	relative viability (Lapatinib + Luminespib; first compound 0.2 µM)	relative viability (Lapatinib + Luminespib; first compound 0.6325 µM)	relative viability (Lapatinib + Luminespib; first compound 2 µM)	relative viability (Lapatinib + Alpelisib; first compound 0.02 µM)	relative viability (Lapatinib + Alpelisib; first compound 0.06325 µM)	relative viability (Lapatinib + Alpelisib; first compound 0.2 µM)	relative viability (Lapatinib + Alpelisib; first compound 0.6325 µM)	relative viability (Lapatinib + Alpelisib; first compound 2 µM)
HCC-827	0.188	0.163	0.191	0.203	0.668	0.594	0.689	0.587	0.74	0.8	0.629	0.624	0.253	0.89	0.957	0.957	0.914	0.434
HOP-62	0.907	0.996	1.04	1.03	0.523	0.266	0.363	0.343	0.839	0.949	0.932	0.869	1.01		0.618	0.861	1.14	0.856
IA-LM	0.876	0.768	0.47	0.674	0.848	0.873	0.969	0.712						0.653	0.66	0.76	0.763	0.792
LC-2-ad	1.03	0.902	0.975	0.927	0.725	0.74	0.716	0.356		0.865	1.2	0.988	0.942		0.796	0.856	0.877	0.73
LCLC-97TM1	1.64	0.603	1.07	0.687	0.403	0.434	0.358	0.323			0.676	0.765	0.875			0.232	0.284	0.257
LCLC-103H					0.81	0.737	0.699	0.793	0.954	0.82	0.877	0.891	0.852		0.882	0.924	0.848	0.92
LK-2	0.853	0.913	0.799	0.864	0.728	0.819	0.739	0.748			0.174	0.211	0.177			0.938	1.13	1.01
LOU-NH91	0.76	0.709	0.768	0.771	0.966	0.873	0.955	0.883	0.368	0.305	0.364	0.346	0.362	0.661	0.557	0.533	0.508	0.472
LU99A	0.905	0.999	1.07	0.97	0.28	0.264	0.29	0.23	0.253	0.248	0.285	0.251	0.244	0.564	0.476	0.527	0.524	0.54
LXF-289	0.925	0.903	0.891	0.849	1.14	1.09	1.03	1.04	0.709	0.459	0.603	0.603	0.65	0.987	1.04	1.06	0.987	0.922
NCI-H23	1.14	1.11	1.31	0.958	0.353	0.256	0.362	0.333			0.197	0.215	0.196			0.737	0.719	0.521
NCI-H322M	0.638	0.585	0.594	0.538	0.704	0.804	0.828	0.765	0.883	0.6	0.758	0.753	0.633	0.776	0.669	0.808	0.73	0.773
NCI-H358	0.44	0.524	0.474	0.456	0.623	0.609	0.576	0.801		0.159		0.255	0.173	0.741		0.574	0.414	0.336
NCI-H441					0.569	0.632	0.633	0.447		0.299	0.278	0.282	0.322		0.65	0.68	0.617	0.799
NCI-H460	0.863	0.999	1.11	0.889	0.462	0.483	0.474	0.459	0.0268	0.035	0.0347	0.0312	0.026	0.415	0.362	0.448	0.389	0.4
NCI-H522					0.694	0.74	0.565	0.581		1.09		1.03	0.794					
NCI-H1299	0.984	0.975	0.982	0.988	0.918	0.953	0.932	0.937						1.06	1.08	1.11	1.03	1.04
NCI-H1563	0.873	1.04	0.896	0.882					0.538	0.509	0.537	0.461	0.474	0.951	0.848	0.795	0.961	0.898
NCI-H1623									0.429	0.437		0.456	0.408					
NCI-H1648					1.13	0.76	1.3	0.679										
NCI-H1650	0.761	0.74	0.708	0.698	0.78	0.817	0.802	0.684	0.19	0.202	0.198	0.2	0.2					
NCI-H1703	1.16	1.28	1.3	1.12	0.507	0.368	0.611	0.322						0.289	0.33	0.325	0.398	0.343
NCI-H2342					0.792	0.489	0.446	0.396	0.579	0.607	0.665	0.692	0.703					
SW 900					0.887	0.814	0.987	0.987		0.176	0.17	0.164	0.175					
